Test systems include HOP-18 NSCLC; RXF-631 renal; DLD-1 colon; XF 498 CNS; DMS 273 small cell lung; LXFL 529 NSCLC; DMS 114 small cell lung; MDA-N.
Common to all, as to experiment: NCI tumour cell line growth inhibition, 48 h

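These data come from cells grown in 96-well plates and exposed to compound for 48 hours at five concentrations. TGI: concentration producing complete growth inhibition.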 A value given as a limit tells only on which side of the number the result lay.

`O=S1(=O)c2ccccc2NC(c2ccc3ccccc3c2)CC1c1ccccc1F` (centres undefined): the TGI in the experiment with HOP-18 NSCLC is 56.1 µM; with RXF-631 renal it was greater than 100 µM; with DLD-1 colon, greater than 100 µM; in the experiment with XF 498 CNS, greater than 100 µM; in the experiment with DMS 273 small cell lung it was greater than 100 µM.
Regarding `COC(CN1C(=O)c2cccc3cccc(c23)C1=O)OC`, the TGI with HOP-18 NSCLC, in the experiment on LXFL 529 NSCLC, in the experiment on DLD-1 colon, with XF 498 CNS, in the experiment on DMS 114 small cell lung and in the experiment with DMS 273 small cell lung was greater than 100 µM throughout.
As to `Clc1cc2nsnc2c(Cl)n1`, the TGI with HOP-18 NSCLC is 31.7 µM; in the experiment with LXFL 529 NSCLC, 27.8 µM; in the experiment on DLD-1 colon it was 42.1 µM; in the experiment on XF 498 CNS, 31.2 µM; with DMS 114 small cell lung, 33.5 µM; in the experiment with DMS 273 small cell lung, greater than 100 µM.
Regarding `O=C(/C=C/c1ccccc1)NC1C=Nc2ccc(Cl)cc2NC1=O` (centres undefined), the TGI was greater than 100 µM in the experiment on HOP-18 NSCLC; greater than 100 µM in the experiment on RXF-631 renal; greater than 100 µM with LXFL 529 NSCLC; greater than 100 µM in the experiment on DLD-1 colon; 50.1 µM in the experiment on XF 498 CNS; 30.4 µM with DMS 114 small cell lung. This compound also came in with a TGI with DMS 273 small cell lung of 54.6 µM.
`O=C(CC1(O)C(=O)Nc2c(Cl)cc(Cl)cc21)c1ccc(Br)cc1Br` (centres undefined): the TGI in the experiment with MDA-N is 21.8 µM; in the experiment on HOP-18 NSCLC, 27.9 µM; with RXF-631 renal it was 9.25 µM; in the experiment on DLD-1 colon, 24.1 µM; in the experiment on XF 498 CNS, 23.8 µM; in the experiment on DMS 114 small cell lung it was 20.3 µM. Also, the TGI with DMS 273 small cell lung was 22.9 µM.
As for `CCOc1ccc(NC(=O)C(=O)CC(=O)c2c[n+](=O)c3cc(C)c(C)cc3n2[O-])cc1`, the TGI in the experiment with HOP-18 NSCLC, in the experiment with RXF-631 renal, in the experiment on LXFL 529 NSCLC, in the experiment with XF 498 CNS, with DMS 114 small cell lung and in the experiment with DMS 273 small cell lung was greater than 100 µM each time.
With `CN1C(=O)C(C)(C)C2(SC(C)(C)C2(C)C)N(C)C1=S` (centres undefined), the TGI in the experiment with HOP-18 NSCLC, with LXFL 529 NSCLC, with DLD-1 colon, with DMS 114 small cell lung and in the experiment with DMS 273 small cell lung was greater than 100 µM throughout.
As for `COC1(OC)CCC2C1C1CCC(OC)(OC)C21` (centres undefined), the TGI in the experiment on HOP-18 NSCLC, with RXF-631 renal, in the experiment on LXFL 529 NSCLC, in the experiment on DLD-1 colon, with XF 498 CNS and in the experiment on DMS 114 small cell lung was greater than 50 µM each time. Further, the TGI in the experiment with DMS 273 small cell lung was greater than 50 µM.
On to `N#CCCN(CCC#N)c1ccc(/C=C2\N=C(c3cc([N+](=O)[O-])ccc3Cl)OC2=O)cc1`, for which the TGI with LXFL 529 NSCLC was 49.3 µM; with XF 498 CNS it was 86.2 µM; with DMS 114 small cell lung, 47.9 µM; in the experiment on DMS 273 small cell lung, greater than 100 µM.
For the compound `CCOC(=O)[C@]1(OC(C)=O)C[C@H](OC(C)=O)[C@@H](C(F)COP(=O)(OCc2ccccc2)OCc2ccccc2)O1` (some centres undefined), the TGI in the experiment on MDA-N is greater than 100 µM.
On the same count and under the same terms, the same measure for `Cc1ccc2c(=O)cc(-c3ccc(F)cc3)[nH]c2n1`: 32.1 µM.
Turning to `CC(C)=CC(=O)C1c2cccc(O)c2C(=O)c2c(O)cc(C)cc21` (centres undefined), the TGI stood at 4.03 µM in the experiment on HOP-18 NSCLC; 4.47 µM with LXFL 529 NSCLC; 7.89 µM in the experiment on DLD-1 colon; 3.11 µM with XF 498 CNS; 3.57 µM with DMS 114 small cell lung; 9.46 µM with DMS 273 small cell lung.
`O=C1C=C(Cl)C(=O)C(c2ccc(Cl)cc2)=C1` showed a TGI with MDA-N of 27.5 µM.
Regarding `O=C1C2C(C(=O)N1OS(=O)(=O)c1ccccc1)N(Cc1ccccc1)C(=O)N2Cc1ccccc1` (centres undefined), the TGI with RXF-631 renal, with LXFL 529 NSCLC, in the experiment on DLD-1 colon, in the experiment on XF 498 CNS and in the experiment with DMS 114 small cell lung was greater than 100 µM throughout.
As to `Cc1ccc(N=Nc2ccc(N(CCC#N)CCC#N)cc2C)c(Br)c1`, the TGI in the experiment on HOP-18 NSCLC was greater than 100 µM; with RXF-631 renal, 81.3 µM; in the experiment with LXFL 529 NSCLC, greater than 100 µM; with DLD-1 colon, greater than 100 µM; in the experiment on XF 498 CNS, 40.6 µM; in the experiment with DMS 114 small cell lung it was greater than 100 µM. This compound had a TGI in the experiment on DMS 273 small cell lung of 41.4 µM.
For `COC(=O)CC1CCN(C#N)CC1CC[N+](=O)[O-]` (centres undefined), the TGI in the experiment on HOP-18 NSCLC, with RXF-631 renal, in the experiment on LXFL 529 NSCLC, in the experiment on DLD-1 colon, in the experiment with DMS 114 small cell lung and in the experiment on DMS 273 small cell lung was greater than 100 µM in each case.
As to `COc1cc2c(cc1OC)-c1c3cc(O)ccc3nn[n+]1CC2`, the TGI in the experiment on HOP-18 NSCLC, with LXFL 529 NSCLC, with DLD-1 colon, in the experiment with XF 498 CNS, with DMS 114 small cell lung and with DMS 273 small cell lung was greater than 100 µM throughout.
Consider `CC(C)C/C(CC(=O)CCC(=O)Nc1ccccc1[N+](=O)[O-])=N\NC(=O)c1cc2ccccc2cc1O`, for which the TGI in the experiment on HOP-18 NSCLC was greater than 100 µM; with RXF-631 renal, greater than 100 µM; with LXFL 529 NSCLC, greater than 100 µM; in the experiment with DLD-1 colon it was greater than 100 µM; in the experiment with XF 498 CNS, greater than 100 µM; in the experiment on DMS 114 small cell lung, 86.8 µM.
Consider `CCCCCCCCCCCCCCCCCC(CCCCCCCCCCCCCCCCC)OP(=O)(O)O`, for which the TGI with HOP-18 NSCLC, in the experiment with LXFL 529 NSCLC, in the experiment with DMS 114 small cell lung and in the experiment on DMS 273 small cell lung was greater than 100 µM throughout.
`Cc1nc2ccccc2c(=O)n1-c1ccccc1I`: the TGI in the experiment with LXFL 529 NSCLC, in the experiment on DLD-1 colon and in the experiment on DMS 114 small cell lung was greater than 100 µM in each case.

These data come from PubChem BioAssay (NCI).
